Drawing on patent publication US8436011B2, “Pyridinopyridinone derivatives, preparation thereof and therapeutic use thereof” (Sanofi, priority 2008, dated 2013), this text covers inhibition for two compounds.

Each structure is given as a SMILES string. Like-named read-outs stand apart in the source and are kept apart here.

In this assay the target is T1, fusion protein Tel/PDGF-R (PDGF-Rβ kinase domain) in HEK cells (Homo sapiens, UniProt P09619).
T1 construct: the transmembrane and intracellular part of the PDGF-Rβ receptor; N-terminal part of the Tel transcription factor (ETV6); expressed in transfected cells; host or cells: HEK cells (transient transfection); the other entry of the earlier key: ETV6 (P41212, Transcription factor ETV6)
T1 sequence (P09619 with tags, fused parts or gaps): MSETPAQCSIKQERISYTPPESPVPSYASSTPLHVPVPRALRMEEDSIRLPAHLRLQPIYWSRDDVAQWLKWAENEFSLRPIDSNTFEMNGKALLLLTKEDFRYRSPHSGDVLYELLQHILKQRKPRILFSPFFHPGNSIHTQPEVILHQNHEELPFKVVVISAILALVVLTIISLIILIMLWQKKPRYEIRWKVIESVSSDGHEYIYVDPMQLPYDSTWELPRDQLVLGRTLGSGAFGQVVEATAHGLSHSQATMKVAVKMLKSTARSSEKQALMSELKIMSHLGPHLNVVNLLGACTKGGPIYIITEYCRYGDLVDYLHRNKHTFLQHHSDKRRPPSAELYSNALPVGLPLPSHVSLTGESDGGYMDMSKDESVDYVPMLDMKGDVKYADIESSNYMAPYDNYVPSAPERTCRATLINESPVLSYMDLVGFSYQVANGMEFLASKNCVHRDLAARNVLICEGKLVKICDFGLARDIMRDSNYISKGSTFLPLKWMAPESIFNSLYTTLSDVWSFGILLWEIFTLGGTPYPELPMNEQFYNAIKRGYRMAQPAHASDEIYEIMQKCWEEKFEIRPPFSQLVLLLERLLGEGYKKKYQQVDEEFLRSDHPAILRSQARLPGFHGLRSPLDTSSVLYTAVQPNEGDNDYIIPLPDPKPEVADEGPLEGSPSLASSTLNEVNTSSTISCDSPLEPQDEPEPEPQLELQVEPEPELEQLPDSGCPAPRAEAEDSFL
As to the kind of experiment: Ex vivo activity: plasma of orally treated mice tested on PDGF-R autophosphorylation in HEK Tel/PDGF-R cells (ELISA). Set-up: species or system female Balb/c mice. The note with it: HEK293, mouse, po, 30 mg/kg po, read-out: % inhibition of autophosphorylation of PDGFR tyrosine kinase in HEK cells. The procedure: Ex vivo activity of the compounds of the invention was measured. These compounds are thus administered orally to female Balb/c mice at a dose of 10, 30 or 100 mg/kg in suspension or in solution in a vehicle such as methylcellulose/Tween and the inhibition of the tyrosine kinase activity is measured in vitro in a cell test, using plasma collected at 15 minutes, 1 hour and 4 hours.
1) Protocol for Administration of the Products to the Mice
The products are prepared in a mortar with 0.5% Tween 80 and 0.6% methylcellulose qs final volume. Depending on the case, preparations of different vehicles may be used: water, mixture of labrasol solutol 5% glucose-water. The suspended or dissolved products are administered by gavage (10 ml/kg) to female Balb/c mice 8 to 15 weeks old.
The animals are then collected at the time given by the protocol (15 min, 1 hour, 4 hours, 16 hours).
The animals are anaesthetized by intraperitoneal injection (10 ml/kg) of a ketamine (0.1 g/kg)-xylazine (20 mg/kg) mixture. […] The blood sample is collected from the vein or the artery using a dry syringe and needle. The blood is immediately transferred into heparin lithium tubes (BD microtainer). Centrifugation for 3 minutes at 12 000 rpm allows recovery of the plasma, on which the biochemical test may be performed after storage by freezing at −20° C.
2) Preparation of the HEK Tel/PDGF-R Cells and Measurement of the Phosphorylation of PDGF-R
In order to detect the ex vivo activity of the products using the mouse plasmas, the HEK cells are transiently transfected beforehand with an expression vector coding for the fusion protein Tel/PDGF-R (fusion protein described previously). After 24 hours of transfection, the cells are deprived of serum overnight and then incubated for 30 minutes with the animal plasmas treated with the products of the invention. The cells are then lysed in RIPA buffer, and detection of the phosphorylation of PDGF-Rβ is then performed via the ELISA technique, using a commercial kit (R&D Systems, DYC1767). The results are expressed as a percentage of inhibition of the autophosphorylation.
In this test of measurement of the ex vivo activity, the effect of the compounds of the invention is quantified by the percentage of inhibition of phosphorylation of the kinase domain of the PDGF-Rβ receptor in HEK cells, induced by the inhibitory activity of the product present in the plasma of the treated animals, as described in the following table: […]

For orientation: inhibition means how much of the control response was suppressed. Regarding `CCN1CC(F)(F)C[C@H]1CNC(=O)Cc1ccc(-c2ccc3c(=O)c(C(=O)NC)c(N)n(CC)c3n2)cc1` [compound 24, 2-amino-1-ethyl-7-{4-[2-({[(2S)-1-ethyl-4,4-difluoropyrrolidin-2-yl]methyl}-amino)-2-oxoethyl]phenyl}-N-methyl-4-oxo-1,4-dihydro-1,8-naphthyridine-3-carboxamide], the inhibition at 30 mg/kg runs as follows: (plasma collected at 15 min) 85%; (plasma collected at 1 h) 57%; (plasma collected at 4 h) 74%.
Regarding `CCn1c(N)c(C(=O)NC)c(=O)c2ccc(-c3ccc(CC(=O)NCC4COCCN4C4CC4)cc3)nc21` (stereo not drawn) [compound 33, 2-amino-7-[4-(2-{[(4-cyclopropylmorpholin-3-yl)methyl]amino}-2-oxoethyl)phenyl]-1-ethyl-N-methyl-4-oxo-1,4-dihydro-1,8-naphthyridine-3-carboxamide], the inhibition at 30 mg/kg was determined as 80% (plasma collected at 15 min), 82% (plasma collected at 1 h) and 75% (plasma collected at 4 h).
